{
  "source": "patent US20170253607A1",
  "about": "“LONG-ACTING HIV PROTEASE INHIBITOR” (Shionogi & Co., Ltd., priority 2014, published 2017)",
  "data": [
    {"target": "HIV-1 PR (Human immunodeficiency virus type 1 group M subtype B, UniProt P04585)", "test": "HIV-protease inhibitory activity assay (FRET peptide substrate)", "assay_type": "biochemical", "conditions": "Test Example 1", "description": "Test Example 1: HIV-Protease Inhibitory Activity Assay\nThe HIV-1 PR assay was performed by using a FRET (Fluorescence Resonance Energy Transfer) peptide substrate (AnaSpec, Inc., Fremont, Calif.). Initially in the intact FRET peptide, the fluorescence of HiLyte Fluor 488 is quenched by QXL 520. Upon substrate cleavage by PR, the fluorescence is recovered and can be monitored. Test compounds diluted in DMSO was plated to the wells of 384-well plate. Then, mixed with assay buffer (0.1 mol/L NaAc containing 0.5 mol/L NaCl, 1 mmol/L EDTA, 1 mmol/L DTT, and 0.05% Tween 20, pH 4.8) in the presence or absence of HIV-1 PR (0.83 ng), and let it stand for 5 minutes at room temperature. Background fluorescence intensity was measured and let it stand for another 15 minutes at room temperature. The enzyme reaction was started by adding substrate diluted in assay buffer at final concentration of 2 μmol/L, and let it stand for 60 minutes at room temperature. After 60 minutes, the fluorescence intensity was measured. Fluorescence intensity was measured with excitation and emission wavelengths of 485 nm and 535 nm, respectively.\nIC50 values were determined using non-linear regression four-parameter logistic equation, y=A+((B−A)/(1+((C/x)̂D))) where A=minimum inhibition, B=maximum inhibition, C=log IC50, D=slope factor, x=concentration of compound and y=% inhibition.", "units": {"IC50": "nM"}, "values": [
      {"smiles": "COc1ccc(S(=O)(=O)N(CC(C)C)C[C@@H](O)[C@H](Cc2ccc(C#Cc3sc4c(c3C(=O)O)CC(C)(C)CC4)cc2)NC(=O)O[C@H]2CO[C@@]3(C)OCC[C@@H]23)cc1", "note": "[Compound I-11]", "IC50": 1.4},
      {"smiles": "COc1ccc(S(=O)(=O)N(CC(C)C)CC(O)C(Cc2ccc(NCc3cnc4ccc(-c5sc6c(c5C(=O)O)CC(C)(C)CC6)cn34)cc2)NC(=O)OC2COC3(C)OCCC23)cc1", "note": "(centres unmarked) [Compound I-286]", "IC50": 2.06},
      {"smiles": "COc1ccc(S(=O)(=O)N(CC(C)C)C[C@@H](O)[C@H](Cc2ccc(OCc3ccc(-c4ccc(F)cc4F)cc3-c3nnn[nH]3)cc2)NC(=O)O[C@H]2CO[C@@]3(C)OCC[C@@H]23)cc1", "note": "[Compound I-22]", "IC50": 0.99},
      {"smiles": "CC(C)CN(C[C@@H](O)[C@H](Cc1ccccc1)NC(=O)O[C@H]1CO[C@@]2(C)OCC[C@@H]12)S(=O)(=O)c1ccc2nc(NCc3sc4c(c3C(=O)O)CC(C)(C)CC4)sc2c1", "note": "[Compound I-26]", "IC50": 2.01},
      {"smiles": "COc1ccc(S(=O)(=O)N(CC(C)C)C[C@@H](O)[C@H](Cc2ccc(OCc3sc4ccccc4c3C(=O)O)cc2)NC(=O)O[C@H]2CO[C@@]3(C)OCC[C@@H]23)cc1", "note": "[Compound I-5]", "IC50": 1.15},
      {"smiles": "COc1ccc(S(=O)(=O)N(CC(C)C)CC(O)C(Cc2ccc(NCc3ccc(-c4ccc(-c5sc6c(c5C(=O)O)CC(C)(C)CC6)cc4)cc3)cc2)NC(=O)OC2COC3(C)OCCC23)cc1", "note": "(centres unmarked) [Compound I-285]", "IC50": 7.76},
      {"smiles": "COc1ccc(S(=O)(=O)N(CC(C)C)CC(O)C(Cc2ccc(N(Cc3nccs3)Cc3ccccc3-c3sc4c(c3C(=O)O)CC(C)(C)CC4)cc2)NC(=O)OC2COC3(C)OCCC23)cc1", "note": "(centres unmarked) [Compound I-431]", "IC50": 3.72},
      {"smiles": "COc1ccc(S(=O)(=O)N(CC(C)C)CC(O)C(Cc2ccc(N(Cc3ccccc3-c3sc4c(c3C(=O)O)CC(C)(C)CC4)CC3CCC3)cc2)NC(=O)OC2COC3(C)OCCC23)cc1", "note": "(centres unmarked) [Compound I-463]", "IC50": 5.13},
      {"smiles": "COc1ccc(S(=O)(=O)N(CC2CCCC2)CC(O)C(Cc2ccc(OCCn3nc4c(c3C(=O)O)CC(C)(C)CC4)cc2)NC(=O)OC2COC3(C)OCCC23)cc1", "note": "(centres unmarked) [Compound I-366]", "IC50": 2.72},
      {"smiles": "COc1ccc(S(=O)(=O)N(CC(C)C)CC(O)C(Cc2ccc(NCc3nc(-c4sc5c(c4C(=O)O)CC(C)(C)CC5)cs3)cc2)NC(=O)OC2COC3(C)OCCC23)cc1", "note": "(centres unmarked) [Compound I-289]", "IC50": 2.4},
      {"smiles": "COc1ccc(S(=O)(=O)N(CC(C)C)CC(O)C(Cc2ccc(NCc3cc(C)ccc3NC(=O)c3sc4c(c3C(=O)O)CC(C)(C)CC4)cc2)NC(=O)OC2COC3(C)OCCC23)cc1", "note": "(centres unmarked) [Compound I-610]", "IC50": 2.16},
      {"smiles": "CC(C)CN(CC(O)C(Cc1ccc(OCc2ccc3ccccc3c2C(=O)N(C)C)cc1)NC(=O)OC1COC2(C)OCCC12)S(=O)(=O)c1ccc2ncsc2c1", "note": "(centres unmarked) [Compound I-163]", "IC50": 1.1},
      {"smiles": "CC(C)CN(CC(O)C(Cc1ccc(OCc2cc(-c3ccc(F)cc3F)ccc2C(=O)O)cc1)NC(=O)OC1COC2(C)OCCC12)S(=O)(=O)c1ccc2ncsc2c1", "note": "(centres unmarked) [Compound I-61]", "IC50": 1.9},
      {"smiles": "CC(C)CN(CC(O)C(Cc1ccc(OCc2ccc(C(=O)O)cc2-c2ccc(F)cc2F)cc1)NC(=O)OC1COC2(C)OCCC12)S(=O)(=O)c1ccc2ncsc2c1", "note": "(centres unmarked) [Compound I-150]", "IC50": 0.93},
      {"smiles": "COc1ccc(S(=O)(=O)N(CC(C)C)CC(O)C(Cc2ccc(N3C(=O)c4cccc(-c5sc6c(c5C(=O)O)CC(C)(C)CC6)c4C3=O)cc2)NC(=O)OC2COC3(C)OCCC23)cc1", "note": "(centres unmarked) [Compound I-620]", "IC50": 2.22},
      {"smiles": "COc1ccc(S(=O)(=O)N(CC(C)C)CC(O)C(Cc2ccc(OCC3CCC(Nc4ccc(C#N)cc4-c4sc5c(c4C(=O)O)CC(C)(C)CC5)CC3)cc2)NC(=O)OC2COC3(C)OCCC23)cc1", "note": "(centres unmarked) [Compound I-330]", "IC50": 40.6},
      {"smiles": "COc1ccc(S(=O)(=O)N(CC(C)C)CC(O)C(Cc2ccc(NCc3ccccc3-c3cnc(-c4sc5c(c4C(=O)O)CC(C)(C)CC5)s3)cc2)NC(=O)OC2COC3(C)OCCC23)cc1", "note": "(centres unmarked) [Compound I-766]", "IC50": 3.28},
      {"smiles": "COc1ccc(S(=O)(=O)N(CC(C)C)CC(O)C(Cc2ccc(N(Cc3cccnc3)Cc3ccccc3-c3sc4c(c3C(=O)O)CC(C)(C)CC4)cc2)NC(=O)OC2COC3(C)OCCC23)cc1", "note": "(centres unmarked) [Compound I-423]", "IC50": 2.8},
      {"smiles": "COc1ccc(S(=O)(=O)N(CC(C)C)CC(O)C(Cc2ccc(N(C)Cc3ccc(N4CCCC4=O)cc3-c3sc4c(c3C(=O)O)CC(C)(C)CC4)cc2)NC(=O)OC2COC3(C)OCCC23)cc1", "note": "(centres unmarked) [Compound I-744]", "IC50": 2.14},
      {"smiles": "CC(C)CN(C[C@@H](O)[C@H](Cc1ccc(OCc2ccc(-c3ccc(F)cc3F)cc2C(=O)O)cc1)NC(=O)O[C@H]1CO[C@@]2(C)OCC[C@@H]12)S(=O)(=O)c1ccc2ncsc2c1", "note": "[Compound I-18]", "IC50": 1.63},
      {"smiles": "COc1ccc(S(=O)(=O)N(CC(C)C)CC(O)C(Cc2ccc(OCc3ccccc3-n3nc4c(c3C(=O)O)Cc3ccccc3-4)cc2)NC(=O)OC2COC3(C)OCCC23)cc1", "note": "(centres unmarked) [Compound I-143]", "IC50": 0.99},
      {"smiles": "COc1ccc(S(=O)(=O)N(CC(C)C)CC(O)C(Cc2ccc(OC3CC4CCC(C3)N4c3ccc(C#N)cc3-c3sc4c(c3C(=O)O)CC(C)(C)CC4)cc2)NC(=O)OC2COC3(C)OCCC23)cc1", "note": "(centres unmarked) [Compound I-324]", "IC50": 19.6},
      {"smiles": "COc1ccc(S(=O)(=O)N(CC(C)C)CC(O)C(Cc2ccc(OCCn3ncc(C(=O)O)c3OC(C)C)cc2)NC(=O)OC2COC3(C)OCCC23)cc1", "note": "(centres unmarked) [Compound I-309]", "IC50": 2},
      {"smiles": "COc1ccc(S(=O)(=O)N(CC(C)C)CC(O)C(Cc2ccc(NCc3ccccc3-n3nc4c(c3C(=O)O)CC3(CCCC3)CC4)cc2)NC(=O)OC2COC3(C)OCCC23)cc1", "note": "(centres unmarked) [Compound I-38]", "IC50": 3.85},
      {"smiles": "COc1ccc(S(=O)(=O)N(CC(C)C)CC(O)C(Cc2ccc(OC3CCN(Cc4ccccc4-c4sc5c(c4C(=O)O)CC(C)(C)CC5)C3)cc2)NC(=O)OC2COC3(C)OCCC23)cc1", "note": "(centres unmarked) [Compound I-207]", "IC50": 2.1},
      {"smiles": "COc1ccc(S(=O)(=O)N(CC(C)C)CC(O)C(Cc2ccc(OC3CCC(c4sc5c(c4C(=O)O)CC(C)(C)CC5)CC3)cc2)NC(=O)OC2COC3(C)OCCC23)cc1", "note": "(centres unmarked) [Compound I-203]", "IC50": 5.02},
      {"smiles": "COc1ccc(S(=O)(=O)N(CC(C)C)CC(O)C(Cc2ccc(NCc3ccccc3-c3nc4n(c3C(=O)O)CCCC4)cc2)NC(=O)OC2COC3(C)OCCC23)cc1", "note": "(centres unmarked) [Compound I-368]", "IC50": 2.11},
      {"smiles": "COc1ccc(S(=O)(=O)N(CC(C)C)CC(O)C(Cc2ccc(NCc3ccccc3-c3c(C(=O)O)cnc4ccc(OC)cc34)cc2)NC(=O)OC2COC3(C)OCCC23)cc1", "note": "(centres unmarked) [Compound I-500]", "IC50": 1.78},
      {"smiles": "CC(C)CN(C[C@@H](O)[C@H](Cc1ccccc1)NC(=O)O[C@H]1CO[C@@]2(C)OCC[C@@H]12)S(=O)(=O)c1ccc2nc(NCCCCOc3ccc(-c4sc5c(c4C(=O)O)CC(C)(C)CC5)cc3)sc2c1", "note": "[Compound I-27]", "IC50": 3.7},
      {"smiles": "COc1ccc(S(=O)(=O)N(CC(C)C)CC(O)C(Cc2ccc(OCc3ccccc3-c3oc4c(c3C(=O)O)CCCC4)cc2)NC(=O)OC2COC3(C)OCCC23)cc1", "note": "(centres unmarked) [Compound I-130]", "IC50": 1.12},
      {"smiles": "COc1ccc(S(=O)(=O)N(CC(C)C)CC(O)C(Cc2ccc(NCc3ccc(O)cc3-c3sc4c(c3C(=O)O)CC(C)(C)CC4)cc2)NC(=O)OC2COC3(C)OCCC23)cc1", "note": "(centres unmarked) [Compound I-548]", "IC50": 1.49},
      {"smiles": "COc1ccc(S(=O)(=O)N(CC(C)C)CC(O)C(Cc2ccc(NCc3cc(C(=O)Nc4sc5c(c4C(=O)O)CC(C)(C)CC5)n(C)c3)cc2)NC(=O)OC2COC3(C)OCCC23)cc1", "note": "(centres unmarked) [Compound I-445]", "IC50": 2.78},
      {"smiles": "COc1ccc(S(=O)(=O)N(CC(C)C)CC(O)C(Cc2ccc(OCc3ccccc3-c3sc4c(c3C(=O)O)C3CC(C4)C3(C)C)cc2)NC(=O)OC2COC3OCCC23)cc1", "note": "(centres unmarked) [Compound I-829]", "IC50": 1.2},
      {"smiles": "Cc1cc(OCCNc2nc3ccc(S(=O)(=O)N(CC(C)C)CC(O)C(Cc4ccccc4)NC(=O)OC4COC5(C)OCCC45)cc3s2)ccc1-c1sc2c(c1C(=O)O)CC(C)(C)CC2", "note": "(centres unmarked) [Compound I-797]", "IC50": 0.85},
      {"smiles": "COc1ccc(S(=O)(=O)N(CC(C)C)CC(O)C(Cc2ccc(-c3ccccc3-c3sc4c(c3C(=O)O)CC(C)(C)CC4)cc2)NC(=O)OC2COC3(C)OCCC23)cc1", "note": "(centres unmarked) [Compound I-193]", "IC50": 3.48},
      {"smiles": "COc1ccc(S(=O)(=O)N(CC(C)C)CC(O)C(Cc2ccc(NCc3ccccc3NC(=O)Nc3sc4c(c3C(=O)O)CC(C)(C)CC4)cc2)NC(=O)OC2COC3(C)OCCC23)cc1", "note": "(centres unmarked) [Compound I-779]", "IC50": 2.74},
      {"smiles": "COc1ccc(S(=O)(=O)N(CC(C)C)CC(O)C(Cc2ccc(C(=O)N(C)Cc3ccccc3-c3sc4c(c3C(=O)O)CC(C)(C)CC4)cc2)NC(=O)OC2COC3(C)OCCC23)cc1", "note": "(centres unmarked) [Compound I-219]", "IC50": 2.06},
      {"smiles": "COc1ccc(S(=O)(=O)N(CC(C)C)CC(O)C(Cc2ccc(N(C)Cc3ccc(N4CC(C)(C)C4=O)cc3-c3sc4c(c3C(=O)O)CC(C)(C)CC4)cc2)NC(=O)OC2COC3(C)OCCC23)cc1", "note": "(centres unmarked) [Compound I-750]", "IC50": 4.6},
      {"smiles": "COc1ccc(S(=O)(=O)N(CC(C)C)CC(O)C(Cc2ccc(N(C)Cc3cc(OC(F)(F)F)ccc3-c3sc4c(c3C(=O)O)CC(C)(C)CC4)cc2)NC(=O)OC2COC3(C)OCCC23)cc1", "note": "(centres unmarked) [Compound I-699]", "IC50": 10.3},
      {"smiles": "COc1ccc(S(=O)(=O)N(CC(C)C)CC(O)C(Cc2ccc(NCc3cccc(-c4sc5c(c4C(=O)O)CC(C)(C)CC5)c3)cc2)NC(=O)OC2COC3(C)OCCC23)cc1", "note": "(centres unmarked) [Compound I-254]", "IC50": 2.64},
      {"smiles": "COc1ccc(S(=O)(=O)N(CC(C)C)CC(O)C(Cc2ccc(N(C)CC3COCCC3c3sc4c(c3C(=O)O)CC(C)(C)CC4)cc2)NC(=O)OC2COC3(C)OCCC23)cc1", "note": "(centres unmarked) [Compound I-401]", "IC50": 1.77}
    ]}
  ]
}
